Measurements reported in patent US10000476B2, “Pyridone derivative, pharmaceutical containing the same and methods of use thereof” (KAKEN PHARMACEUTICAL CO., LTD., priority 2011, dated 2018).

Assays:
Format in all cases: biochemical
human MMP-13 = human MMP-13 (Homo sapiens (Human), UniProt P45452); test: MMP-13 inhibition test; details: read-out: MMPs IC50 MMP-13
Protocol: (§1) MMP inhibition tests can be carried out, for example, using a fluorescent synthetic substrate based on the methods described in Bickett et al. (D. Mark Bickett et al., Anal. Biochem., 1993, 212, 58-64) and Nagase et al. (H. Nagase et al., J. Biol. Chem., 1994, 269, 20952-20957). The method for each MMP inhibition test is shown below.
(§2) 90 μL (18 ng) of human MMP-13 (Calbiochem # CC068) or 90 μL (130 ng) of human MMP-13 (Calbiochem #444287) was mixed with 10 μL of 10 mM APMA, and activated by reacting at 37° C. for 1 hour. 10 μL of the resultant enzyme solution was diluted to 90 μL with an assay buffer A. The mixture was added to 90 μL of a 20 μM fluorescent substrate (Dnp-Pro-Cha-Gly-Cys(Me)-His-Ala-Lys(Nma)-NH2) (SEQ ID NO: 2) prepared with an assay buffer B, and reacted at 37° C. for 4 hours. Enzyme activity was then determined by measuring with a fluorescence intensity meter (Labsystems, Fluoroskan Ascent) at an excitation wavelength of 355 nm and a measurement wavelength of 460 nm.
(§3) From the enzyme activity in the presence or the absence of the test substance, the inhibition rate was determined, and the 50% inhibitiory concentration (IC50) of the test substance was calculated.

human MMP-9 = human MMP-9 (Homo sapiens (Human), UniProt P14780); test: MMP-9 inhibition test; details: read-out: MMPs IC50 MMP-9
Chain of human MMP-9 (P14780 107-707): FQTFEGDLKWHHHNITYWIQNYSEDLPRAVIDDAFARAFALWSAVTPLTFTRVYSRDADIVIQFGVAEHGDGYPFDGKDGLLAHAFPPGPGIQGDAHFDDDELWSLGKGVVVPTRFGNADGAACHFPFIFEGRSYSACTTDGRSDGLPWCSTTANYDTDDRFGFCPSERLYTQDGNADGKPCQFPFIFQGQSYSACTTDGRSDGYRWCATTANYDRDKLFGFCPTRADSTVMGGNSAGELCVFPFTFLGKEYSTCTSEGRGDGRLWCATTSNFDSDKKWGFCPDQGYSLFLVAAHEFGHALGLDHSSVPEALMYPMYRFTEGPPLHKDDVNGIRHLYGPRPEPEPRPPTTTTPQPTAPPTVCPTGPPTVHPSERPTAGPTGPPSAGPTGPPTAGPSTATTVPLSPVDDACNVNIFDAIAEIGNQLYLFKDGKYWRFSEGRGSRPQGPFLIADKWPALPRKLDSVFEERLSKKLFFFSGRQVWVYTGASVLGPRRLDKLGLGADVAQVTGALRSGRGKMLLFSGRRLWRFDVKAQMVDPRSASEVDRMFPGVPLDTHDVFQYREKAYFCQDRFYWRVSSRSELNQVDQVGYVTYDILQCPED
Protocol: as §1
as §2, with “(11” for “(18”, “MMP-9” for “MMP-13”, “#444231)” for “# CC068) or 90 μL (130 ng) of human MMP-13 (Calbiochem #444287)”, “2 hours.” for “1 hour.”
as §3

human MMP-3 = human MMP-3 (Homo sapiens (Human), UniProt P08254); test: MMP-3 inhibition test; details: read-out: MMPs IC50 MMP-3
Chain of human MMP-3 (P08254 100-272): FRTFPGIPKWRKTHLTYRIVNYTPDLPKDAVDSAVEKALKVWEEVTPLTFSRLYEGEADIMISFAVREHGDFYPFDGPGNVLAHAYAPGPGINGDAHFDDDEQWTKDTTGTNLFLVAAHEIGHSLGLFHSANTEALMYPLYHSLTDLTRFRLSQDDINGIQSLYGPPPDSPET
Protocol: as §1
90 μL (1.5 ng) of human MMP-3 (Calbiochem #444217) prepared with an assay buffer A was added to 90 μL of a 20 μM fluorescent substrate NFF-3 (MOCAc((7-methoxycoumarin-4-yl)acetyl)-Arg-Pro-Lys-Pro-Val-Glu-Nva-Trp-Arg-Lys(Dnp)-NH2, Peptide Institute Inc., #3168-v) (SEQ ID NO: 4) prepared with an assay buffer B, and reacted at 37° C. for 4 hours. Enzyme activity was then determined by measuring with a fluorescence intensity meter (Labsystems, Fluoroskan Ascent) at an excitation wavelength of 320 nm and a measurement wavelength of 405 nm.
as §3

human MMP-8 = human MMP-8 (Homo sapiens (Human), UniProt P22894); test: MMP-8 inhibition test; details: read-out: MMPs IC50 MMP-8
Chain of human MMP-8 (P22894 101-467): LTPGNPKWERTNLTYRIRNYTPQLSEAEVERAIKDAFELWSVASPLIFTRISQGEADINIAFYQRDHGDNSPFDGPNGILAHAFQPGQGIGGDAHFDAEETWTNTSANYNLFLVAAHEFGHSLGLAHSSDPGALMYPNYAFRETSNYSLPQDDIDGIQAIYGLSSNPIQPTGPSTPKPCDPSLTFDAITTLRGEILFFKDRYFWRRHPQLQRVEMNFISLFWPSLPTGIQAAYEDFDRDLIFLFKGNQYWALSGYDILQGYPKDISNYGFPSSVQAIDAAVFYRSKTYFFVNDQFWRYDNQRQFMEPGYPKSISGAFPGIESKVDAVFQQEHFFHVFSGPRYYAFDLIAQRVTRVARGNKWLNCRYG
Protocol: as §1
90 μL (29 ng) of human MMP-8 (Calbiochem #444229) was mixed with 10 μL of 10 mM APMA, and activated by reacting at 37° C. for 1 hour. 10 μL of the resultant enzyme solution was diluted to 90 μL with an assay buffer A. The mixture was added to 90 μL of a 20 μM fluorescent substrate (MOCAc-Pro-Leu-Gly-Leu-A2pr(Dnp)-Ala-Arg-NH2, Peptide Institute Inc., #3163-v) (SEQ ID NO: 3) prepared with an assay buffer B, and reacted at 37° C. for 5 hours. Enzyme activity was then determined by measuring with a fluorescence intensity meter (Labsystems, Fluoroskan Ascent) at an excitation wavelength of 320 nm and a measurement wavelength of 405 nm.
as §3

human MMP-1 = human MMP-1 (Homo sapiens (Human), UniProt P03956); test: MMP-1 inhibition test; details: read-out: MMPs IC50 MMP-1
Chain of human MMP-1 (P03956 100-469): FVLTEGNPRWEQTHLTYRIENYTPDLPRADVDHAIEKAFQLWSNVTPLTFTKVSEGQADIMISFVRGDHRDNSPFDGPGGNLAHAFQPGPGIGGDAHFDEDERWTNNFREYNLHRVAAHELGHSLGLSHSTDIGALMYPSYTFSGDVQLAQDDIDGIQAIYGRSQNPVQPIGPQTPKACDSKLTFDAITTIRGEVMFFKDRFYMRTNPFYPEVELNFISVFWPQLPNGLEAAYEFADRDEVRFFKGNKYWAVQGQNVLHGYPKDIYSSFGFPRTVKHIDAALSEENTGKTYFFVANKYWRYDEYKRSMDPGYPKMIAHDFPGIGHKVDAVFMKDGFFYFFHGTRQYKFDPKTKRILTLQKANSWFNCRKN
Protocol: as §1
180 μL (100 ng) of human MMP-1 (Calbiochem #444208) was mixed with 20 μL of 10 mM p-amino phenyl mercuric acetate (APMA), and activated by reacting at 37° C. for 1 hour. 20 μL of the resultant enzyme solution was diluted to 90 μL with an assay buffer A. The mixture was added to 90 μL of a 20 μM fluorescent substrate (Dnp-Pro-Cha(β-cyclohexylalanyl)-Gly-Cys(Me)-His-Ala-Lys(Nma)-NH2) (SEQ ID NO: 2) prepared with an assay buffer B, and reacted at 37° C. for 5 hours. Enzyme activity was then determined by measuring with a fluorescence intensity meter (Labsystems, Fluoroskan Ascent) at an excitation wavelength of 355 nm and a measurement wavelength of 460 nm.
as §3

| SMILES | IC50 (human MMP-13) [µM] | IC50 (human MMP-9) [µM] | IC50 (human MMP-3) [µM] | IC50 (human MMP-8) [µM] | IC50 (human MMP-1) [µM] |
| --- | --- | --- | --- | --- | --- |
| Cc1cccn(CC2(c3ccccc3)NC(=O)NC2=O)c1=O (stereo not drawn) [Compound I-1, 5-[(3-methyl-2-oxopyridin-1(2H)-yl)methyl]-5-phenyl-imidazolidine-2,4-dione] | 45 | > 100 | > 100 | 21 | > 100 |
| Cc1cccn(CC2(c3ccc(Oc4ccccc4)cc3)NC(=O)NC2=O)c1=O (stereo not drawn) [Compound I-9, 5-[(3-methyl-2-oxopyridin-1(2H)-yl)methyl]-5-(4-phenoxyphenyl)imidazolidine-2,4-dione] | > 100 | > 100 | 74 | 14 | > 100 |
| Cc1cccn(CC2(c3ccc(F)c(F)c3)NC(=O)NC2=O)c1=O (stereo not drawn) [Compound I-10, 5-(3,4-difluorophenyl)-5-[(3-methyl-2-oxopyridin-1(2H)-yl)methyl] imidazolidine-2,4-dione] | > 100 | > 100 | > 100 | 19 | > 100 |
| COc1ccc(Cl)cc1C1(Cn2cccc(C)c2=O)NC(=O)NC1=O (stereo not drawn) [Compound I-27, 5-(5-chloro-2-methoxyphenyl)-5-[(3-methyl-2-oxopyridin-1(2H)-yl)methyl]imidazolidine-2,4-dione] | > 100 | > 100 | 49 | 16 | > 100 |
| Cc1cccn(CC2(c3ccc(Cc4ccccc4)cc3)NC(=O)NC2=O)c1=O (stereo not drawn) [Compound I-40, 5-(4-benzylphenyl)-5-[(3-methyl-2-oxopyridin-1(2H)-yl)methyl]imidazolidine-2,4-dione] | > 100 | > 100 | > 100 | 16 | > 100 |
| Cc1cccn(CC2(c3ccc(Cc4ccc(F)cc4)cc3)NC(=O)NC2=O)c1=O (stereo not drawn) [Compound I-41, 5-[4-(4-fluorobenzyl)phenyl]-5-[(3-methyl-2-oxopyridin-1(2H)-yl)methyl] imidazolidine-2,4-dione] | > 100 | > 100 | > 100 | > 10 | 93 |
| Cc1cccn(CC2(c3cccc(-c4cccnc4)c3)NC(=O)NC2=O)c1=O (stereo not drawn) [Compound I-62] | > 100 | 67 | 39 | 5 | > 100 |
| Cc1cccn(CC2(c3ccc(OCc4ccccc4)cc3)NC(=O)NC2=O)c1=O (stereo not drawn) [Compound I-64] | > 100 | > 100 | > 100 | 6.2 | > 100 |
| Cc1cccn(CC2(c3ccc(Oc4ccccc4F)cc3)NC(=O)NC2=O)c1=O (stereo not drawn) [Compound I-86] | > 100 | > 100 | > 100 | 18 | > 100 |
